US8933270B2, “Use of docasatrienes, resolvins, and their stable analogs in the treatment of airway diseases and asthma” (The Brigham and Women's Hospital, Inc., priority 2002, dated 2015)

Experiments:
[1] = tested on: PMN infiltration; assay: Zymosan A-induced peritonitis; assay type: in vivo, FVB mice; conditions: for inhibition of PMN/leukocyte infiltration: i.v. bolus before zymosan A, lavage at 2 h
Description: (§1) FIG. 5 depicts Bioimpact properties of omega-3-derived Resolvins. A) Human glioma cells: Inhibition of TNF-stimulated IL-1β transcripts DBTRG-05MG cells 10^6/ml were stimulated with 50 ng/ml of human recombinant TNFα for 16 hours to induce expression of IL-1β transcripts. Concentration dependence with COX-2 products: 17-HDHA (n), 13-HDHA (l)and di-/tri-HDHA (n). […] (insets) Results are representative of RT-PCR gels of MG cells exposed to 100 nM of 13-HDHA or 17-HDHA and graphed after normalization of the IL-1β transcripts using GAPDH. B) Influence of eicosanoids and docosanoids on fMLP-induced neutrophil migration across micovascular endothelial monolayers Neutrophils (1×10^6 cells/monolayer) were exposed to vehicle containing buffer, or indicated concentrations of aspirin-triggered LXA4 analog (closed diamonds) 5S,12,18R-triHEPE (closed squares), 17R-HDHA (closed circles) or 13-HDHA (closed triangles) for 15 minutes at 37° C. Neutrophils were then layered on HMVEC monolayers and stimulated to transmigrate by a 10^−8 M fMLP gradient for 1 hr at 37° C. Transmigration was assessed by quantitation of the neutrophil marker myeloperoxidase. Results are presented as mean±SEM number of PMN (n=8-12 monolayers per condition). C) Reduction of PMN in murine peritonitis and skin pouch peritonitis: Compounds (100 ng in 120 μL sterile saline) were injected by intravenous bolus injection into the mouse tail vein and followed by 1 ml zymosan A (1 mg/ml) into the peritoneum. Peritoneal lavages were collected (2 h) and cell types were enumerated.
Human PMN transendothelial migration was quantitated by monitoring myeloperoxidase (MPO) an azurophilic granule marker as in (34, 37). Inflammatory exudates were initiated with intrapouch injection of recombinant mouse TNFα (100 ng/pouch; R&D Systems) into dorsal air pouches (10) of 6-8 wk male FVB mice fed laboratory rodent diet 5001 (Lab Diet, Purina Mills) containing less than 0.25% arachidonic acid, 1.49% EPA and 1.86% DHA followed by ASA (500 μg) at 3.5 h and 300 μg DHA/pouch at 4 h post-TNFα injection. At 6 h (within the resolution phase), pouches were lavaged (3 ml saline) and exudate cells were enumerated Inhibition of TNFα stimulated (100 ng/pouch) PMN infiltration with i.v. tail injection of either 17R-HDHA (as prepared with COX-2 vide infra), 5S,12,18R-HEPE, or a 15-epi-LXA4 analog were determined with pouch lavages taken at 4 h. Peritonitis was performed using 6 to 8-week-old FVB male mice (Charles River Laboratories) fed laboratory Rodent Diet 5001 (Purina Mills) that were anesthetized with isoflurane, and compounds to be tested (125 μl) were administered intravenously. Zymosan A in 1 ml (1 mg/ml) was injected ˜1-1.5 min later in the peritoneum. Each test compound (100 ng/incubation, i.e. 17R-HDHA in ethanol) or vehicle alone was suspended in ˜5 μl and mixed in sterile saline 120 μl. Two hours after the intraperitoneal injections, and in accordance with the Harvard Medical Area Standing Committee on Animals protocol #02570, mice were euthanized and peritoneal lavages rapidly collected for enumeration.
Peritonitis was induced in 6 to 8 week old male FVB mice by peritoneal injection of 1 mg Zymosan A. Compounds 4,17S and 10,17S-diHDHA were injected by intravenous bolus injection, 1.5 minutes before Zymosan A treatment. Two hours after induction of peritonitis, rapid peritoneal lavages were collected and cell type enumeration was performed.

[2] = tested on: PMN infiltration; assay: Zymosan A-induced peritonitis; assay type: in vivo, FVB mice; conditions: dose increased to 200 ng, intravenous bolus
[3] = tested on: leukotrienes; assay: Leukotriene formation in murine exudates; assay type: in vivo; conditions: n=4, not shown
[4] = tested on: IL-1β transcripts in DBTRG-05MG cells; assay: Inhibition of TNF-stimulated IL-1β transcripts (RT-PCR); assay type: cell-based, human; conditions: Homo sapiens, DBTRG-05MG; 50 ng/ml TNFα, 16 h; read-out: IC50, inhibition of TNFα-induced IL-1β transcripts / cytokine expression
Description: as §1, with “C) Reduction of PMN in murine peritonitis and skin pouch peritonitis: Compounds (100 ng in 120 μL sterile saline) were injected by intravenous bolus injection into the mouse tail vein and followed by 1 ml zymosan A (1 mg/ml) into the peritoneum. Peritoneal lavages were collected (2 h) and cell types were enumerated.” left out
Human glioma cells DBTRG-05MG cells (ATCC) were cultured as recommended by ATCC. […] Results were analyzed using the NIH Image program (http://rsb.info.nih.gov/nih-image).

[5] = tested on: human PMN; assay: fMLP-induced neutrophil migration across microvascular endothelial monolayers (MPO); assay type: cell-based; conditions: nM range; 10^-8 M fMLP gradient, 1 hr
Description: FIG. 5 depicts Bioimpact properties of omega-3-derived Resolvins. A) Human glioma cells: Inhibition of TNF-stimulated IL-1β transcripts DBTRG-05MG cells 10^6/ml were stimulated with 50 ng/ml of human recombinant TNFα for 16 hours to induce expression of IL-1β transcripts. Concentration dependence with COX-2 products: 17-HDHA (n), 13-HDHA (l)and di-/tri-HDHA (n). […] (insets) Results are representative of RT-PCR gels of MG cells exposed to 100 nM of 13-HDHA or 17-HDHA and graphed after normalization of the IL-1β transcripts using GAPDH. […] Transmigration was assessed by quantitation of the neutrophil marker myeloperoxidase. […]
Human PMN transendothelial migration was quantitated by monitoring myeloperoxidase (MPO) an azurophilic granule marker as in (34, 37). […] At 6 h (within the resolution phase), pouches were lavaged (3 ml saline) and exudate cells were enumerated Inhibition of TNFα stimulated (100 ng/pouch) PMN infiltration with i.v. tail injection of either 17R-HDHA (as prepared with COX-2 vide infra), 5S,12,18R-HEPE, or a 15-epi-LXA4 analog were determined with pouch lavages taken at 4 h. […]

[6] = tested on: leukotrienes; assay: Leukotriene formation by human PMN; assay type: cell-based; conditions: in vitro, n=4, not shown
[7] = tested on: leukocyte infiltration; assay: TNFα-induced dorsal air pouch; assay type: in vivo, FVB mice; conditions: i.v. or local (intrapouch) administration, lavage at 4 h
[8] = molecular target: T1, human recombinant COX-2 (Homo sapiens, UniProt P35354); assay: Impact of NSAIDs on COX-2 conversion of DHA; assay type: biochemical
T1 construct: made in house; host or cells: Sf9 insect cells (microsomal fractions)
T1 sequence (P35354 18-604): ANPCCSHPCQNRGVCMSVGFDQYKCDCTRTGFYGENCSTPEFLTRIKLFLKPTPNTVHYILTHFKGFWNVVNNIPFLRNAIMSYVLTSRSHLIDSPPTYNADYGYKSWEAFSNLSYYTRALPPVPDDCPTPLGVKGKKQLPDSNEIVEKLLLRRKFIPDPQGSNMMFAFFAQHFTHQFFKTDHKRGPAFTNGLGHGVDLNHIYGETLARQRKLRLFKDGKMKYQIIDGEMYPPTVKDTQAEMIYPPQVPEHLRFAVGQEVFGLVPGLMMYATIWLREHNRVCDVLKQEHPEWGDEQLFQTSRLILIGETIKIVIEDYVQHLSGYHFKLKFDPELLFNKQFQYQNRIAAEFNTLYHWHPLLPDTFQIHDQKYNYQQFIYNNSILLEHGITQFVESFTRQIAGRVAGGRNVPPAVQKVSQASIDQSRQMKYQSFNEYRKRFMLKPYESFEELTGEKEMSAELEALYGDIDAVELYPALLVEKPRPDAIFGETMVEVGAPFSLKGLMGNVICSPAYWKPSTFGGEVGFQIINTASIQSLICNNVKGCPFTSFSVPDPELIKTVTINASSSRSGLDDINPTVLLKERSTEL
Description: (§2) Human recombinant COX-2 was overexpressed in Sf9 insect cells (ATCC). The microsomal fractions (˜8 μl) were suspended in Tris (100 mM, pH 8.0) as in (35). ASA was incubated (˜2 mM, 37° C., 30 min) with COX-2 before addition of DHA (10 μM), or in some experiments [1-^14C]-labeled DHA (from American Radiolabeled Chemicals, Inc.), and conversions were monitored in parallel using [1^−14C]-labeled C20:4 (with ASA) (as in FIG. 2; also see text).
(§3) Incubations were extracted with deuterium-labeled internal standards (15-HETE and C20:4) for LC-MS-MS analysis as in (33) using a Finnigan LCQ liquid chromatography ion trap tandem mass spectrometer (San Jose, Calif.) equipped with a LUNA C18-2 (150×2 mm×5 μm or 100×2 mm×5 μm) column and a rapid spectra scanning UV diode array detector that monitored UV absorbance ˜0.2 min prior to samples entering the MS-MS. All intact cell incubations and in vivo exudates were stopped with 2 ml cold methanol and kept at −80° C. for >30 minutes. Samples were extracted using C18 solid phase extraction and analyzed using GC-MS (see Table 2) (Hewlett-Packard), thin layer chromatography or tandem liquid chromatography-mass spectrometry (LC-MS-MS). Also, a Chiralcel OB-H column (4.6×250 mm; J. T. Baker) was used to determine R and S alcohol configurations of monohydroxy-PUFA using isocratic mobile phase (hexane:isopropanol; 97.5:2.5, vol:vol, with a 0.6 ml/min flow rate). Detailed procedures for isolation, quantitation and structural determination of lipid-derived mediators were recently reported (36) and used here essentially as reported for elucidation of novel products.
Results are the mean±SEM, n=3. Products were extracted, identified, and quantitated using deuterium internal standards and LC-MS-MS (see Methods).

[9] = tested on: thromboxane and prostanoids; assay: Thromboxane and prostanoid production in air pouch exudates; assay type: in vivo, FVB mice; conditions: ASA 500 μg per pouch
Description: It is noteworthy that the Lab Diet 5001 used to feed these mice contained 1.86% DHA and 1.49% EPA with <0.25% arachidonic acid (Purina Mills).

[10] = molecular target: T2, ASA-acetylated COX-2 (Homo sapiens, UniProt P35354); assay: Substrate conversion by ASA-acetylated COX-2; assay type: biochemical; conditions: C20:4 to 15R-HETE, DHA to 17R-HDHA; mean±S.E.M., n=3
T2 construct: made in house; host or cells: Sf9 insect cells (microsomal fractions), then treated with about 2 mM ASA
T2 sequence (P35354 18-604): T1 sequence (P35354 18-604)
Description: as §2
as §3, with “Also, a Chiralcel OB-H column (4.6×250 mm; J. T. Baker) was used to determine R and S alcohol configurations of monohydroxy-PUFA using isocratic mobile phase (hexane:isopropanol; 97.5:2.5, vol:vol, with a 0.6 ml/min flow rate).” left out

Question: What does the source list for `CCC=CCC(O)C=CC=CCC=CCC=CC=CC(O)CCC(=O)O` (stereo not drawn) [4,17S-diHDHA]?
Answer: potency relative to comparator at equal dose ([1]; PMN/leukocyte infiltration, FIG. 16 and FIG. 18): approximately half as potent as 10,17-docosatriene; inhibition of PMN/leukocyte infiltration [1]: dose-dependent inhibition; effectiveness relative to 10,17-docosatriene [2]: essentially equally effective

Question: Which formation of leukotrienes [3] does the source give for `CC/C=C\CC(O)/C=C/C=C\C/C=C\C/C=C\C/C=C\CCC(=O)O` (stereo not drawn) [17R-HDHA, 17-hydroxy-docosa-4Z,7Z,10Z,13Z,15E,19Z-hexaenoic acid] here?
Answer: Its formation of leukotrienes is “prevented formation of leukotrienes”.

Question: And the “inhibition of PMN/leukocyte infiltration” value [1]?
Answer: The value was “potent inhibitor”.

Question: And the IC50 [4]?
Answer: The IC50 was ~0.05 nM.

Question: And the “direct impact on PMN transmigration across endothelial monolayers” value [5]?
Answer: The value was “did not directly inhibit”.

Question: What about the formation of leukotrienes [6] of the same compound?
Answer: Its formation of leukotrienes is “prevented formation of leukotrienes”.

Question: What about the “regulation of PMN/leukocyte recruitment into the air pouch” value [7] of the same compound?
Answer: Its value is “did regulate in vivo PMN exudate cell numbers”.

Question: With `CC(=O)Oc1ccccc1C(=O)O` [ASA, aspirin] as the compound, how does the “% Increase of 17-HDHA” value ([8]; NSAID incubated 30 min with COX-2, ASA 2 mM, indomethacin 200 μM, acetaminophen 500 μM, NS398 100 μM, mean±SEM, n=3) read?
Answer: Its value is 97.8 ± 2.0%.

Question: What about the inhibition at 2000 µM ([8]; read-out: % Inhibition of 13-HDHA) of the same compound?
Answer: Its inhibition at 2000 µM is 85.7 ± 5.6%.

Question: And the “in vivo production of thromboxane and prostanoids” value [9]?
Answer: Its value is “completely inhibited”.

Question: Which substrate conversion [10] does the source give for `CCCCC/C=C\C/C=C\C/C=C\C/C=C\CCCC(=O)O` [C20:4, arachidonic acid] here?
Answer: Its substrate conversion is 67%±5%.
